# Measured values: US20240132431A1, “METHOD FOR ALKYLATING ACIDIC FUNCTIONAL GROUP” (Chugai Seiyaku Kabushiki Kaisha, priority 2021, published 2024)
# Molecular target: T1, Bcl-2 protein (Recombinant Human Bcl-2 Protein) (Homo sapiens, UniProt P10415)
# T1 construct: purchased Novus NBP2-34889
# Test: Binding evaluation of mixture library compounds to Bcl-2 using AS-MS (affinity selection mass spectrometry)
# Conditions: for ASMS ratio (%) n = 1 / ASMS ratio (%) n = 2: ASMS Ratio(%)=(A−C)/B×100; for ASMS ratio (%) n = 1: replicate n = 1; for ASMS ratio (%) n = 2: replicate n = 2
# Outline: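 Pooled library of ~1200 compounds ([…] each, final) incubated with recombinant human Bcl-2 (20 μM final) in Tris-HCl pH 7.4, NaCl, Tween-20, DTT buffer, dark, 23° C., 1 h. Bound fraction recovered by SEC spin column, organic extraction, reversed-phase LC/MS. ASMS Ratio (%) = (A−C)/B×100 versus protein-free standard and SEC blank.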
# [1] = AS-MS, mixture of 1200 compounds, Bcl-2
# [2] = AS-MS on the mixture of 1200 library compounds
# T1 sequence (P10415 whole entry): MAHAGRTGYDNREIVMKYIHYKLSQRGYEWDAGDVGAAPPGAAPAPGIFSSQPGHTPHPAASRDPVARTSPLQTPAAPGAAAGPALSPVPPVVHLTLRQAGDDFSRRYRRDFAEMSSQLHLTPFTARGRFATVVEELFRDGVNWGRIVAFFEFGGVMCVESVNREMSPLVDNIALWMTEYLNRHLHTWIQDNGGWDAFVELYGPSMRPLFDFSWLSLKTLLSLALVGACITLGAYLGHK
Molecule,ASMS ratio (%) n = 1 [1] [%],ASMS ratio (%) n = 2 [1] [%],ASMS ratio (%) n = 1 [2] [%],ASMS ratio (%) n = 2 [2] [%],further results
"CCOc1cncc(-c2cc(CN3CCN(c4ccc(C(=O)NCC56CC7CC(CC(C7)C5)C6)nn4)CC3)cc(OC(C)C)c2)c1 [B1A084-01, N-(1-Adamantylmethyl)-6-[4-[[3-(5-ethoxypyridin-3-yl)-5-propan-2-yloxyphenyl]methyl]piperazin-1-yl]pyridazine-3-carboxamide]",2.1,−2.7,–,–,–
"CCOc1cncc(-c2ccccc2CN2CCN(c3ccc(C(=O)NCC45CC6CC(CC(C6)C4)C5)nn3)CC2)c1 [B1A072-01, N-(1-Adamantylmethyl)-6-[4-[[2-(5-ethoxypyridin-3-yl)phenyl]methyl]piperazin-1-yl]pyridazine-3-carboxamide]",3.9,−0.2,–,–,–
"CCOc1cncc(-c2cc(C(=O)N3CCN(c4ccc(C(=O)NCC56CC7CC(CC(C7)C5)C6)nn4)CC3)cc(C(C)(C)C)c2)c1 [B1A016-01, N-(1-Adamantylmethyl)-6-[4-[3-tert-butyl-5-(5-ethoxypyridin-3-yl)benzoyl]piperazin-1-yl]pyridazine-3-carboxamide]",12.1,−4.6,–,–,–
6-[4-[[4-(5-Ethoxypyridin-3-yl)-3-methylphenyl]methyl]piperazin-1-yl]-N-propylpyridazine-3-carboxamide [B1M065-01],0.2,−6.4,–,–,–
"CCOc1cccc(-c2cnn(-c3cc(C(=O)N4CCN(c5ccc(C(=O)NCC(F)(F)F)cc5)CC4)cc(C(F)(F)F)c3)c2)c1 [B1K043-01, 4-[4-[3-[4-(3-Ethoxyphenyl)pyrazol-1-yl]-5-(trifluoromethyl)benzoyl]piperazin-1-yl]-N-(2,2,2-trifluoroethyl)benzamide]",3.8,1.9,–,–,–
"CCOc1cncc(-c2cnn(-c3cc(C(=O)N4CCN(c5ccc(C(=O)Nc6ccc(OC)cc6)cc5)CC4)cc(C(F)(F)F)c3)c2)c1 [B1O044-01, 4-[4-[3-[4-(5-Ethoxypyridin-3-yl)pyrazol-1-yl]-5-(trifluoromethyl)benzoyl]piperazin-1-yl]-N-(4-methoxyphenyl)benzamide]",–,–,5.8,0.4,–
CCOc1cncc(C#Cc2ccccc2CN2CCN(c3ccc(C(=O)Nc4ccc(OC)cc4)cc3)CC2)c1 [B1O070-01],–,–,8.8,2.3,–
"CCOc1cccc(C#Cc2cc(C(=O)N3CCN(c4ccc(C(=O)NS(C)(=O)=O)nn4)CC3)cc(C(F)(F)F)c2)c1 [B2I019-01, 6-[4-[3-[2-(3-Ethoxyphenyl)ethynyl]-5-(trifluoromethyl)benzoyl]piperazin-1-yl]-N-methylsulfonylpyridazine-3-carboxamide]",–,–,–,–,"ASMS ratio (%) n = 1 (AS-MS, mixture library, Bcl-2): 0.0%"
CCOc1cccc(-c2cc(CN3CCN(c4ccc(C(=O)NCC(F)(F)F)nn4)CC3)cc(OC(C)C)c2)c1 [B1K083-01],0.0,0.0,–,–,–
"CCOc1cccc(-c2ccc(CN3CCN(c4ccc(C(=O)NCC56CC7CC(CC(C7)C5)C6)nn4)CC3)c3ccccc23)c1 [B1A091-01, N-(1-Adamantylmethyl)-6-[4-[[4-(3-ethoxyphenyl)naphthalen-1-yl]methyl]piperazin-1-yl]pyridazine-3-carboxamide]",0.0,15.4,–,–,–
"CCOc1cccc(-c2ccccc2CCC(=O)N2CCN(c3ccc(C(=O)NCC(F)(F)F)nn3)CC2)c1 [B1K011-01, 6-[4-[3-[2-(3-Ethoxyphenyl)phenyl]propanoyl]piperazin-1-yl]-N-(2,2,2-trifluoroethyl)pyridazine-3-carboxamide]",−0.1,0.3,–,–,–
"CCOc1cccc(-c2ccc(CN3CCN(c4ccc(C(=O)Nc5ccc(OC)cc5)cc4)CC3)cc2C)c1 [B1O047-01, 4-[4-[[4-(3-Ethoxyphenyl)-3-methylphenyl]methyl]piperazin-1-yl]-N-(4-methoxyphenyl)benzamide]",–,–,4.1,1.5,–
"CCOc1cccc(-c2ccc(C(C)N3CCN(c4ccc(C(=O)Nc5ccc(OC)cc5)cc4)CC3)cc2)c1 (stereo not drawn) [B1O097-01, 4-[4-[1-[4-(3-Ethoxyphenyl)phenyl]ethyl]piperazin-1-yl]-N-(4-methoxyphenyl)benzamide]",–,–,4.2,2.2,–
"CCOc1cccc(-c2cc(CN3CCN(c4ccc(C(=O)NS(=O)(=O)CC56CC7CC(CC(C7)C5)C6)cc4)CC3)cc(C(F)(F)F)c2)c1 [B2A061-01, N-(1-Adamantylmethylsulfonyl)-4-[4-[[3-(3-ethoxyphenyl)-5-(trifluoromethyl)phenyl]methyl]piperazin-1-yl]benzamide]",–,–,–,–,"ASMS ratio (%) n = 1 (AS-MS, mixture library, Bcl-2): 1.7%; ASMS ratio (%) n = 2 (AS-MS, mixture library, Bcl-2): −5.6%"
"CCOc1cncc(-c2ccc(C(=O)N3CCN(c4ccc(C(=O)NCC(F)(F)F)cc4)CC3)c3ccccc23)c1 [B1K036-01, 4-[4-[4-(5-Ethoxypyridin-3-yl)naphthalene-1-carbonyl]piperazin-1-yl]-N-(2,2,2-trifluoroethyl)benzamide]",1.1,−0.4,–,–,–
"CCOc1cccc(-c2cc(OC)c(CN3CCN(c4ccc(C(=O)NS(C)(=O)=O)nn4)CC3)c(OC)c2)c1 [B2I085-01, 6-[4-[[4-(3-Ethoxyphenyl)-2,6-dimethoxyphenyl]methyl]piperazin-1-yl]-N-methylsulfonylpyridazine-3-carboxamide]",–,–,–,–,ASMS ratio (%) (n = 1): 0.0%; ASMS ratio (%) (n = 2): 0.0%
"CCOc1cccc(-c2csc(C(=O)N3CCN(c4ccc(C(=O)NS(=O)(=O)C(C)(C)C)nn4)CC3)c2)c1 [B2L001-01, N-tert-Butylsulfonyl-6-[4-[4-(3-ethoxyphenyl)thiophene-2-carbonyl]piperazin-1-yl]pyridazine-3-carboxamide]",–,–,–,–,ASMS ratio (%) (n = 1): −67.5%; ASMS ratio (%) (n = 2): 0.0%
"CCOc1cncc(-c2cc(C(=O)N3CCN(c4ccc(C(=O)N(C)CC56CC7CC(CC(C7)C5)C6)nn4)CC3)cc(C(F)(F)F)c2)c1 [B3A018-01, N-(1-Adamantylmethyl)-6-[4-[3-(5-ethoxypyridin-3-yl)-5-(trifluoromethyl)benzoyl]piperazin-1-yl]-N-methylpyridazine-3-carboxamide]",–,–,5.0,1.8,–
"CCOc1cccc(-c2csc(CN3CCN(c4ccc(C(=O)N(C)CC56CC7CC(CC(C7)C5)C6)cc4)CC3)c2)c1 [B3A067-01, N-(1-Adamantylmethyl)-4-[4-[[4-(3-ethoxyphenyl)thiophen-2-yl]methyl]piperazin-1-yl]-N-methylbenzamide]",–,–,−7.3,4.0,–
"CCOc1cncc(-c2cc(C(=O)N3CCN(c4ccc(C(=O)N(C)CC56CC7CC(CC(C7)C5)C6)cc4)CC3)cc(C(F)(F)F)c2)c1 [B3A040-01, N-(1-Adamantylmethyl)-4-[4-[3-(5-ethoxypyridin-3-yl)-5-(trifluoromethyl)benzoyl]piperazin-1-yl]-N-methylbenzamide]",–,–,3.5,−6.7,–
6-[4-[4-(5-Ethoxypyridin-3-yl)-3-methylbenzoyl]piperazin-1-yl]-N-propylpyridazine-3-carboxamide [B1M037-01],−1.5,2.3,–,–,–
"CCOc1cccc(-c2cc(CN3CCN(c4ccc(C(=O)N(CC)CC)cc4)CC3)cc(OCC)c2)c1 [B4J055-01, 4-[4-[[3-Ethoxy-5-(3-ethoxyphenyl)phenyl]methyl]piperazin-1-yl]-N,N-diethylbenzamide]",–,–,−0.7,1.4,–
4-[4-[[4-(5-Ethoxypyridin-3-yl)-3-fluorophenyl]methyl]piperazin-1-yl]-N-propylbenzamide [B1M085-01],–,–,0.0,0.0,–
"CCOc1cccc(-c2ccc(CN3CCN(c4ccc(C(=O)N(CC)CC)cc4)CC3)cc2C)c1 [B4J047-01, 4-[4-[[4-(3-Ethoxyphenyl)-3-methylphenyl]methyl]piperazin-1-yl]-N,N-diethylbenzamide]",–,–,−6.6,0.0,–
"CCOc1cccc(-c2cc(CN3CCN(c4ccc(C(=O)NS(=O)(=O)CCC(F)(F)F)nn4)CC3)cc(OC(F)(F)F)c2)c1 [B2N089-01, 6-[4-[[3-(3-Ethoxyphenyl)-5-(trifluoromethoxy)phenyl]methyl]piperazin-1-yl]-N-(3,3,3-trifluoropropylsulfonyl)pyridazine-3-carboxamide]",–,–,–,–,ASMS ratio (%) (n = 2): 0.0%
"CCOc1cncc(C#Cc2ccccc2C(=O)N2CCN(c3ccc(C(=O)NS(=O)(=O)CCC(F)(F)F)nn3)CC2)c1 [B2N008-01, 6-[4-[2-[2-(5-Ethoxypyridin-3-yl)ethynyl]benzoyl]piperazin-1-yl]-N-(3,3,3-trifluoropropylsulfonyl)pyridazine-3-carboxamide]",–,–,–,–,ASMS ratio (%) (n = 1): 0.0%; ASMS ratio (%) (n = 2): −0.4%
"CCOc1cccc(C#Cc2cncc(C(=O)N3CCN(c4ccc(C(=O)NS(C)(=O)=O)nn4)CC3)c2)c1 [B2I009-01, 6-[4-[5-[2-(3-Ethoxyphenyl)ethynyl]pyridine-3-carbonyl]piperazin-1-yl]-N-methylsulfonylpyridazine-3-carboxamide]",–,–,–,–,"ASMS ratio (%) n = 1 (AS-MS, mixture library, Bcl-2): 0.0%; ASMS ratio (%) n = 2 (AS-MS, mixture library, Bcl-2): 0.0%"
"CCOc1cccc(-c2cc(CN3CCN(c4ccc(C(=O)N(CC)CC)nn4)CC3)cc(C(F)(F)F)c2)c1 [B4J087-01, 6-[4-[[3-(3-Ethoxyphenyl)-5-(trifluoromethyl)phenyl]methyl]piperazin-1-yl]-N,N-diethylpyridazine-3-carboxamide]",–,–,–,–,"ASMS ratio (%) n = 1 (AS-MS, mixture library, Bcl-2): 0.9%; ASMS ratio (%) n = 2 (AS-MS, mixture library, Bcl-2): 0.3%"
